According to the supplement of paper PMC13380429:

Tests used:
Details in all cases: 72 h
Caco-2 [1] = assay: cell viability relative to DMSO; higher = less toxic
Calu-3 [2] = assay: as above
HepG2 [3] = assay: as above
U2OS [4] = assay: as above
Vero E6 [5] = assay: as above
Caco-2 [6] = assay: relative viability EC50 (midpoint between 100% and the lowest measured viability); higher = less toxic
Calu-3 [7] = assay: as above
HepG2 [8] = assay: as above
U2OS [9] = assay: as above
Vero E6 [10] = assay: as above
Caco-2 [11] = assay: drug sensitivity score (DSS) for viability; higher = more toxic; extreme values may be limits of the assay
Calu-3 [12] = assay: as above
HepG2 [13] = assay: as above
U2OS [14] = assay: as above
Vero E6 [15] = assay: as above

Compound	cell viability (Caco-2 [1]; 1 nM)	cell viability (Caco-2 [1]; 10 nM)	cell viability (Caco-2 [1]; 100 nM)	cell viability (Caco-2 [1]; 1000 nM)	cell viability (Caco-2 [1]; 10000 nM)	cell viability (Calu-3 [2]; 1 nM)	cell viability (Calu-3 [2]; 10 nM)	cell viability (Calu-3 [2]; 100 nM)	cell viability (Calu-3 [2]; 1000 nM)	cell viability (Calu-3 [2]; 10000 nM)	cell viability (HepG2 [3]; 1 nM)	cell viability (HepG2 [3]; 10 nM)	cell viability (HepG2 [3]; 100 nM)	cell viability (HepG2 [3]; 1000 nM)	cell viability (HepG2 [3]; 10000 nM)	cell viability (U2OS [4]; 1 nM)	cell viability (U2OS [4]; 10 nM)	cell viability (U2OS [4]; 100 nM)	cell viability (U2OS [4]; 1000 nM)	cell viability (U2OS [4]; 10000 nM)	cell viability (Vero E6 [5]; 1 nM)	cell viability (Vero E6 [5]; 10 nM)	cell viability (Vero E6 [5]; 100 nM)	cell viability (Vero E6 [5]; 1000 nM)	cell viability (Vero E6 [5]; 10000 nM)	relative viability EC50 (Caco-2 [6])	relative viability EC50 (Calu-3 [7])	relative viability EC50 (HepG2 [8])	relative viability EC50 (U2OS [9])	relative viability EC50 (Vero E6 [10])	drug sensitivity score (Caco-2 [11])	drug sensitivity score (Calu-3 [12])	drug sensitivity score (HepG2 [13])	drug sensitivity score (U2OS [14])	drug sensitivity score (Vero E6 [15])
CCCC(=O)Nc1cccc(NC(=O)c2ccccc2Br)c1 [ML161]	93.6%	95.5%	89.6%	96.6%	94%	95.4%	101%	89.2%	101%	105%	91.6%	98%	94.9%	94.2%	103%	95.3%	97.7%	95.8%	98.8%	94.2%	100%	96.1%	103%	98.9%	97.7%	> 10 µM	> 10 µM	> 10 µM	> 10 µM	> 10 µM	0	0	0	0	0
CC(=O)N[C@H]1[C@@H](O)[C@H](O)[C@@H](CO)O[C@@H]1O [N-acetylmannosamine]	102%	99.6%	100%	107%	104%	106%	100%	94.7%	102%	111%	108%	96.7%	110%	105%	100%	95.6%	101%	105%	103%	105%	97%	95.9%	92.1%	92.8%	108%	> 10 µM	> 10 µM	> 10 µM	> 10 µM	> 10 µM	0	0	0	0	0
O[C@@H](C[C@H]1c2ccccc2-c2cncn21)C1CCCCC1 [NLG919]	97.6%	97%	102%	95.8%	86.3%	106%	111%	92.7%	105%	85.6%	108%	95.9%	102%	93.5%	94.1%	93.1%	93%	94%	96.7%	90.7%	97.3%	98.5%	93.3%	89.8%	84.2%	> 10 µM	> 10 µM	> 10 µM	> 10 µM	> 10 µM	0.4	0.1	0	0	0.7
CC(C)[C@H]1c2ccc(F)cc2CC[C@@]1(CCN(C)CCCc1nc2ccccc2[nH]1)OC(=O)C1CC1 [NNC-55-0396]	85.5%	102%	93.6%	97.2%	4.5%	106%	105%	100%	99.7%	2.2%	109%	104%	98.7%	96.8%	0%	98.9%	99.1%	94.4%	97.2%	2.8%	95.2%	96.1%	93.5%	89.4%	-0.1%	2.95 µM	3.14 µM	2.93 µM	2.96 µM	2.29 µM	5.7	5.5	6	5.8	7.3
COc1ccc(COc2ccc(CC#N)cc2)cc1 [O4I1]	94.7%	93.9%	96.3%	92.9%	92.2%	104%	93.3%	103%	89.4%	102%	100%	97%	98.6%	95.4%	94.7%	102%	106%	96.2%	104%	95.4%	100%	99.4%	99.1%	95%	87.4%	> 10 µM	> 10 µM	> 10 µM	> 10 µM	> 10 µM	0	0	0	0	0.2
O=C(CCN1CCN(C(=O)OCc2cc(Cl)cc(Cl)c2)CC1)c1ccc2[nH]c(=O)oc2c1 [PF-8380]	94.8%	101%	91.2%	98.1%	94.9%	97.5%	101%	94.5%	99.5%	113%	99.6%	96.3%	93.4%	105%	97.3%	98.5%	101%	97.9%	95.6%	101%	106%	110%	104%	103%	92.7%	> 10 µM	> 10 µM	> 10 µM	> 10 µM	> 10 µM	0	0	0	0	0
CC(C)OC(=O)[C@H](C)N[P@@](=O)(OC[C@H]1O[C@@H](n2ccc(=O)[nH]c2=O)[C@](C)(F)[C@@H]1O)Oc1ccccc1 [PSI-7976]	105%	88.7%	103%	90.2%	101%	104%	85.4%	96.7%	93.3%	94.2%	89.5%	103%	92.6%	109%	113%	98.2%	93.6%	101%	99%	96.8%	95.2%	101%	91.4%	99%	108%	> 10 µM	> 10 µM	> 10 µM	> 10 µM	> 10 µM	0	0	0	0	0
